Experimental findings from ChEMBL document CHEMBL1130741, “Carboxy-substituted 2-azetidinones as cholesterol absorption inhibitors” (1998) are described below.

Holding throughout (type): functional, Cricetulus griseus
The subject of experiment [1] is Cricetinae gen. sp. The experiment is described as follows: Compound was tested for percent reduction of liver cholesterol esters absorption in cholesterol fed hamster model at an oral dose of 50 mg/kg/day.
Experiment [2] deals with Cricetinae gen. sp. Description: Compound was tested for percent reduction of liver cholesterol esters absorption in cholesterol fed hamster model at an oral dose of 10 mg/kg/day.
The test system of experiment [3] is Cricetinae gen. sp. The experiment is described as follows: Dose required to inhibit cholesterol absorption in cholesterol fed hamster model.
Experiment [4] deals with Cricetinae gen. sp. The experiment is described as follows: Compound was tested for percent reduction of serum cholesterol absorption in cholesterol fed hamster model at an oral dose of 10 mg/kg/day.
In experiment [5] the test system is Cricetinae gen. sp. The experiment is described as follows: Compound was tested for percent reduction of liver cholesterol esters absorption in cholesterol fed hamster model at an oral dose of 3 mg/kg/day.
In experiment [6] the test system is Cricetinae gen. sp. The experiment is described as follows: Compound was tested for percent reduction of serum cholesterol absorption in cholesterol fed hamster model at an oral dose of 3 mg/kg/day.

Consider `COC(=O)CCc1ccc([C@@H]2[C@@H](CCCc3ccccc3)C(=O)N2c2ccc(OC)cc2)cc1` (racemic), for which, in the experiment on Cricetinae gen. sp. [1], the Reduction is recorded as -93%.
Regarding `COC(=O)C(C)(C)Oc1ccc([C@@H]2[C@@H](CCCc3ccccc3)C(=O)N2c2ccc(OC)cc2)cc1`, the Reduction with Cricetinae gen. sp. [1] was -80%.
With `O=C(O)Cc1ccc([C@@H]2[C@@H](CCCc3ccccc3)C(=O)N2c2ccc(F)cc2)cc1`, the values for the Reduction in the experiment with Cricetinae gen. sp. [2] and with Cricetinae gen. sp. [4] were -97% and -44%, respectively. Besides, in the experiment on Cricetinae gen. sp. [3], the ED50 – broadly, the dose at which the effect has come halfway, by size or by number of responders – turned out to be 1.1 mg/kg/day.
Regarding `COc1ccc(N2C(=O)[C@H](CCCc3ccccc3)[C@H]2c2ccc(OC(C)(C)C(=O)O)cc2)cc1` (racemic), the Reduction with Cricetinae gen. sp. [1] is given as -75%.
Consider `COC(=O)Cc1ccc([C@@H]2[C@@H](CCCc3ccccc3)C(=O)N2c2ccc(F)cc2)cc1`, for which the Reduction in the experiment on Cricetinae gen. sp. [5] is -61%; with Cricetinae gen. sp. [6], -16%.
For `COc1ccc([C@@H]2[C@@H](CCCc3ccccc3)C(=O)N2c2ccc(OC)cc2)cc1` [SCH-48461], the Reduction is -93% in the experiment with Cricetinae gen. sp. [2] and -43% in the experiment on Cricetinae gen. sp. [4]. In addition, in the experiment on Cricetinae gen. sp. [3], the ED50 was 2 mg/kg/day.
Take `COC(=O)c1ccc([C@@H]2[C@@H](CCCc3ccccc3)C(=O)N2c2ccc(F)cc2)cc1`: the results for the Reduction with Cricetinae gen. sp. [5] and with Cricetinae gen. sp. [6] were -16% and 0%, respectively.
In the case of `CCN(CC)C(=O)Cc1ccc([C@@H]2[C@@H](CCCc3ccccc3)C(=O)N2c2ccc(F)cc2)cc1`, the Reduction with Cricetinae gen. sp. [2] is -19%; in the experiment on Cricetinae gen. sp. [4] it was 0%.
As to `O=C(O)CCc1ccc([C@@H]2[C@@H](CCCc3ccccc3)C(=O)N2c2ccc(F)cc2)cc1`, the values for the Reduction in the experiment with Cricetinae gen. sp. [2] and in the experiment on Cricetinae gen. sp. [4] were -63% and -32%, respectively.
On to `CCN(CC)C(=O)CCc1ccc([C@@H]2[C@@H](CCCc3ccccc3)C(=O)N2c2ccc(F)cc2)cc1`, for which the Reduction in the experiment on Cricetinae gen. sp. [2] is reported as -19%; in the experiment on Cricetinae gen. sp. [4], 0%.
As for `O=C(O)c1ccc([C@@H]2[C@@H](CCCc3ccccc3)C(=O)N2c2ccc(F)cc2)cc1`, the Reduction with Cricetinae gen. sp. [5] is on record as -37%; in the experiment on Cricetinae gen. sp. [6], 0%.
With `COC(=O)CCc1ccc([C@@H]2[C@@H](CCCc3ccccc3)C(=O)N2c2ccc(F)cc2)cc1`, the Reduction with Cricetinae gen. sp. [2] is -72%; in the experiment with Cricetinae gen. sp. [4], -26%.
In the case of `COc1ccc([C@@H]2[C@@H](CCCc3ccccc3)C(=O)N2c2ccc(OC)cc2)cc1` (racemic) [SCH-48461], the Reduction with Cricetinae gen. sp. [1] is reported as -78%.
The compound `COC(=O)Cc1ccc([C@@H]2[C@@H](CCCc3ccccc3)C(=O)N2c2ccc(OC)cc2)cc1` came in with an ED50 with Cricetinae gen. sp. [3] of 0.95 mg/kg/day. Besides, the Reduction is on record as -89% in the experiment on Cricetinae gen. sp. [5] and -26% with Cricetinae gen. sp. [6].
For the compound `COC(=O)/C=C/c1ccc([C@@H]2[C@@H](CCCc3ccccc3)C(=O)N2c2ccc(OC)cc2)cc1`, the Reduction in the experiment on Cricetinae gen. sp. [1] is listed as -90%.
The compound `COC(=O)CCc1ccc([C@@H]2[C@@H](CCCc3ccccc3)C(=O)N2c2ccc(OC)cc2)cc1` registered an ED50 in the experiment with Cricetinae gen. sp. [3] of 0.85 mg/kg/day. Moreover, the Reduction in the experiment with Cricetinae gen. sp. [5] is reported as -76%; in the experiment with Cricetinae gen. sp. [6], -20%.
